{
  "source": "patent US9842198B2",
  "about": "“Screening method and systems utilizing mass spectral fragmentation patterns” (McMaster University, priority 2012, dated 2017)",
  "origin": "cited, not measured here",
  "test_system": "G-protein coupled receptor NK-1",
  "conditions": "natural ligands are tachykinin peptide hormones such as neurokinin A",
  "note": "*1 amine or outer side, *2 acyl side, *3 side chain or, on linkers, in order; H or OH if unused. Where a SMILES comes first, the peptide text is derived from it. Bridges are numbered along the chain shown (N, C = ends). [ ]: non-standard residue; d: D form. The star is where a group is joined. Cinnamoyl(2-(1Z-pentenyl)) = CCC/C=C\\c1ccccc1/C=C/C(=O)*; X1 = CN(/C(=C/c1ccc(O)cc1)C(=O)[*:2])[*:1]; aThr = C[C@H](O)[C@H](N)C(=O)O",
  "data": [
    {"compound": "CCC/C=C\\c1ccccc1/C=C/C(=O)N[C@@H]1C(=O)N(C)/C(=C/c2ccc(O)cc2)C(=O)N[C@@H](CC(C)C)C(=O)N[C@H](Cc2ccccc2)C(=O)N[C@@H]([C@H](C)O)C(=O)N[C@@H](CC(N)=O)C(=O)N[C@@H](CO)C(=O)O[C@@H]1C", "note": "[WS-9326A] ({Cinnamoyl(2-(1Z-pentenyl))}-T[X1]L[dF][aThr]NS; ester 1-C)", "values": [
      {"measurement": "antagonist activity at NK-1", "value": "potent antagonist"}
    ]}
  ]
}
